# Where two headings read alike, the source gives them in different places.
# Columns and labels:
# [1] = molecular target: T1, IV-cPLA(2) (Homo sapiens, UniProt P47712); experiment: PLA(2) activity, hydrolysis of bis-BODIPY FL C11-PC in activated U937 cells; format: cell-based
# T1 sequence (P47712 1-749): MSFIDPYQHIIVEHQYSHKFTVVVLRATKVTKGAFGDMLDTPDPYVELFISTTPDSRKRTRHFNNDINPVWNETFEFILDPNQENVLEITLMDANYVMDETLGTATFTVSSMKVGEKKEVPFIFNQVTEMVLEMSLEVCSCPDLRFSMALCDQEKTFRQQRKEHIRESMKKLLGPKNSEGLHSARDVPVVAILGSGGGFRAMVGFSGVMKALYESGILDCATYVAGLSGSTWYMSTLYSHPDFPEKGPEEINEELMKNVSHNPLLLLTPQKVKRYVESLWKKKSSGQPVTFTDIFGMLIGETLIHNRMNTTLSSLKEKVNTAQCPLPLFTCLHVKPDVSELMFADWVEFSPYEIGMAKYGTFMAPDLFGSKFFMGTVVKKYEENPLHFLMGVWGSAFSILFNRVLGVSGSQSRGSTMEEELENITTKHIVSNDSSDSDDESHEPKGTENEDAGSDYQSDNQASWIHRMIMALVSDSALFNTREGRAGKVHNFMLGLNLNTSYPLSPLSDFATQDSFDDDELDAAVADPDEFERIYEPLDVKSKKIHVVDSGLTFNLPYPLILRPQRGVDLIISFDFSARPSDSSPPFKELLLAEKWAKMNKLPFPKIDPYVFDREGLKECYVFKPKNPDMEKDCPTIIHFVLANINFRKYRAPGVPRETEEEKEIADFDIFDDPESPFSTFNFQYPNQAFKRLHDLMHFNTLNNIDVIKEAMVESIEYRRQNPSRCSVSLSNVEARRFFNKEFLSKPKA
# Description: The PLA(2) activity was measured by quantitatively analyzing the fluorescent product of hydrolysis from 1,2-bis-(4,4-difluoro-5,7-dimethyl-4-bora-3a,4a-diaza-s-indecene-3-undecanoyl)-sn-glycero-3-phosphocholine (hereinafter referred to bis-BODIPY®FL C11—PC, Molecular Probes, Inc., B-7701) using activated U937 cells (human monoblastic lymphoma cell line) by inflammatory stimulus (Meshulam, T. et al., The journal of Biological Chemistry 267 (30): 21465-21470 (1992); and Solito, E. et al., British Journal of Pharmacology 124: 1675-1683 (1998).). The substrate bis-BODIPY®FL C11—PC is incorporated into cellular membranes, the proximity of the BODIPY FL fluorophores on adjacent phospholipid acyl chains causes fluorescence self-quenching. Separation of the fluorophores upon hydrolytic cleavage of one of the acyl chains by PLA(1) or the PLA(2) results in increased fluorescence. In the activated U937 by inflammatory stimulus, it is shown that this substrate should be cleaved enzymatically by IV-cPLA(2) from the feature of its behaviors including sensitivity profiles against the inhibitors.
# The human cell line U937 was purchased from Dai-Nippon Pharmaceuticals Co., Ltd. The cells were maintained by transferring every 3-4 days into RPMI 1640 medium (Sigma Chemical Co., R6504) supplemented with heat-inactivated 10% fetal bovine serum (Fetal Bovine Serum, Sigma Chemical Co., F 4135) in a 5% CO2 humidified atmosphere at 37° C. The cells were transferred into the culture medium described above, containing 1.2% (v/v) dimethylsulfoxide (hereinafter referred to as […], Nacalai tesque Co., Ltd., D 134-45), and pre-cultured for 96 to 120 hours so as to differentiate into the macrophage-like cells to be provided for the assay. The macrophage-like cells were collected and washed by centrifugation with the Assay medium (Dulbecco's phosphate buffered saline (hereinafter referred to as PBS)-2.2 mM glucose-2.5 μm albumin). Then, Phorbol 12-Myristate 13-Acetate (hereinafter referred to as TPA, Sigma Chemical Co., P 8139) was added to the Assay medium to be 1×10^−8M as the final concentration. Then, the macrophage-like cells were further cultured for an hour to be activated (Rzigalinski, B. A. & Rosenthal, M. D., Biochimica et Biophysica Acta 1223: 219-225 (1994); and Gonchar, M. V. et al., Biochemical and Biophysical Research Communication, 249: 829-832 (1998).).
# For preparing substrate liposome suspension, bis-BODIPY®FL C11—PC was combined with phosphatidylcholine (Sigma Chemical Co., P 7769) at 1:9 molar ratio in chloroform, and dried under nitrogen flow. The dried mixture was suspended with the Assay medium at 100 μg/mL, voltexed and sonicated for an hour on ice under dark condition.
# The test compound was dissolved with DMSO at 30 mM, and the solution diluted with either DMSO or the Assay medium before addition into the reaction mixture. The DMSO concentration in the reaction mixture was controlled so as to be no more than 0.1%. The 30-fold concentration of test compound solution was put into each well of MICRPTEST™ Tissue Culture Plate, 96 Well (Falcon, 3072) at a rate of 2.5 μL/well. To the respective well was added 25 μL/well of the activated U937 cell suspension ([…]), and the cells were pre-cultured for 120 min. at 37° C. in a 5% CO2 atmosphere incubator. 47.5 μL/well of the substrate liposome suspension with 1.5×10^−6M A23187 (Sigma Chemical Co., C 7522) was added into each well to prepare 75 μL/well of the total reaction mixture, followed by culture for 30 min. under the same conditions with shielding against light. 100 μL/well of 0.1% GEDTA (Dojindo Laboratories Co. Ltd., 348-01311) methanol solution was added into each well and mixed to stop the reaction. […]
# [2] = tested on: TPA-induced ear edema; format: in vivo, ICR-strain male mouse; details: topical, 6 hours after TPA
# Description: This test was carried out referring to the method of Carlson, R. P. et al. (Agents and Actions, 17(2): 197-204 (1985).) and the method of Chang, J. (European Journal of Pharmacology, 142: 197-205 (1987).). […] 6 hours later, the thickness of each ear at the particular part was respectively measured three times using a digimatic micrometer to calculate the mean value. Ear edema was determined by subtracting the mean thickness of the left ear as without treatment from that of the right ear as TPA-applied. […] As the positive control, 100 mg/kg of Hydrocortisone (Sigma Chemical Co., H 4001) suspension was applied to the mouse similarly as for the compound of the present invention.
Inhibition (%) ([1]; 0.1 μM),SMILES,further results
75,CC1C(c2ccc(-c3ccccc3)cc2)OC(=O)N1C(=O)Nc1ccc(Cl)cc1 (centres unmarked) [Compound 2-186],–
100,CN=C1OC(c2ccc(C)cc2)C(C)N1C(=O)Nc1ccc(Cl)cc1 (centres unmarked) [Compound 1-25],–
–,CC1C(c2cnc3ccccc3c2)OC(=O)N1C(=O)NC1CCCCO1 (centres unmarked) [Compound 2-151],Inhibition (%) ([1]; 0.01 μM): 64%
54,CCONC(=O)N1C(=O)OC(c2ccc(Oc3ccccc3)cc2)C1C (centres unmarked) [Compound 2-116],–
72,CC1C(c2cccnc2)SC(=O)N1C(=O)NC1CCCCC1 (centres unmarked) [Compound 2-145],–
62,CC1C(c2ccc3c(c2)CCCC3)OC(=O)N1C(=O)NC1CCCCO1 (centres unmarked) [Compound 2-125],Ear Edema Inhibition (%) ([2]; 1 mg/40 μL/ear × 2): 62%
96,Cc1ccc(C2OC(=O)N(C(=O)NC3CCSCC3)C2C)cc1 (centres unmarked) [Compound 2-157],–
–,O=C(NC1CCCCO1)N1CC(c2ccc(-c3ccccc3)cc2)OC1=O (centres unmarked) [Compound 2-78],Inhibition (%) ([1]; 0.01 μM): 100%
88,Cc1ccc(C2OC(=O)N(C(=O)NC3CCCCO3)C2C)cc1C (centres unmarked) [Compound 2-156],Ear Edema Inhibition (%) ([2]; 1 mg/20 μL/ear × 2): 48%
–,Cc1ccc(C2SC(=NC(=S)NC3CCCCC3)NC2C)cc1 (centres unmarked) [Compound 1-112],Inhibition (%) ([1]; 1 μM): 72%; Ear Edema Inhibition (%) ([2]; 1 mg/40 μL/ear × 2): 69%
–,Cc1ccc(C2OC(=O)N(C(=O)NN3CCN(C)CC3)C2C)cc1 (centres unmarked) [Compound 2-161],Inhibition (%) ([1]; 1 μM): 65%
100,CC1C(c2ccccc2)OC(=O)N1C(=S)NC1CCCCC1 (centres unmarked) [Compound 2-180],–
77,Cc1ccc(C2OC(=O)N(C(=O)NCCCl)C2C)cc1 (centres unmarked) [Compound 2-48],–
74,CC1C(c2ccc(-c3ccccc3)cc2)OC(=O)N1C(=O)Nc1ccc(Cl)cc1 (centres unmarked) [Compound 2-187],–
91,Cc1ccc(C2OC(=O)N(C(=S)NC3CCCCC3)C2C)cc1C (centres unmarked) [Compound 2-182],–
94,CCN(CC)S(=O)(=O)NC(=O)N1C(=O)OC(c2ccc(C)cc2)C1C (centres unmarked) [Compound 2-55],Ear Edema Inhibition (%) ([2]; 1 mg/40 μL/ear × 2): 54%
92,COS(=O)(=O)NC(=O)N1C(=O)OC(c2ccc(C)cc2)C1C (centres unmarked) [Compound 2-56],–
–,CCNC(=O)N1C(=NNc2ccccc2)SC(c2ccc(Cl)cc2)C1C (centres unmarked) [Compound 1-77],Inhibition (%) ([1]; 1 μM): 100%
68,Cc1ccc(C2OC(=NC(=O)c3c(C)cccc3Cl)NC2C)cc1 (centres unmarked) [Compound 1-73],Ear Edema Inhibition (%) ([2]; 1 mg/40 μL/ear × 2): 86%
–,CC1C(c2ccc3c(c2)CCC3)OC(=O)N1C(=O)NC1CCCCO1 (centres unmarked) [Compound 2-127],Inhibition (%) ([1]; 0.01 μM): 54%; Ear Edema Inhibition (%) ([2]; 1 mg/40 μL/ear × 2): 81%
68,O=C(NC1CCCCO1)N1CC(c2ccc3ccccc3c2)OC1=O (centres unmarked) [Compound 2-130],–

Inhibition (%) ([1]; 0.1 μM),SMILES,further results
72,CCN(C(C)C)S(=O)(=O)NC(=O)N1C(=O)OC(c2ccc3ccccc3c2)C1C (centres unmarked) [Compound 2-126],–
–,CC1C(c2ccc(Cl)cc2)SC(=O)N1C(=O)NC(=O)c1ccccc1 (centres unmarked) [Compound 2-38],Inhibition (%) ([1]; 1 μM): 87%
100,CC1C(c2ccc(Cl)cc2)SC(=O)N1C(=O)NN(C)C (centres unmarked) [Compound 2-22],–
–,CC1C(c2ccc(Cl)cc2)SC(=O)N1C(=O)NC1CCCCO1 (centres unmarked) [Compound 2-201],Inhibition (%) ([1]; 1 μM): 94%
83,CC1C(c2ccc(-c3ccccc3)cc2)OC(=O)N1C(=S)NC1CCCCC1 (centres unmarked) [Compound 2-75],–
–,COC1CCCC(NC(=O)N2C(=O)OC(c3ccc4ccccc4c3)C2C)O1 (centres unmarked) [Compound 2-133],Inhibition (%) ([1]; 1 μM): 75%
95,Cc1ccc(C2OC(=O)N(C(=O)NC3CCOCC3)C2C)cc1 (centres unmarked) [Compound 2-159],–
95,CC1C(c2ccccc2)OC(=O)N1C(=O)NC1CCCCO1 (centres unmarked) [Compound 2-155],–
55,Cc1ccc(C2OC(=O)N(C(=O)NC(=O)c3c(F)cccc3F)C2C)cc1 (centres unmarked) [Compound 2-79],–
–,Cc1ccc(N2C(=NC(=O)NC3CCCCC3)SC(c3ccc(Cl)cc3)C2C)cc1 (centres unmarked) [Compound 1-90],Ear Edema Inhibition (%) ([2]; 1 mg/20 μL/ear × 2): 41%
–,"C[C@@H]1[C@@H](c2ccc(Cl)cc2)SC(=O)N1C(=O)NC1CCCCO1 (single isomer, unassigned) [Compound 2-246]",Inhibition (%) ([1]; 0.01 μM): 78%; Ear Edema Inhibition (%) ([2]; 1 mg/40 μL/ear × 2): 74%
85,CC1C(c2ccccn2)OC(=O)N1C(=O)Nc1ccc(Cl)cc1 (centres unmarked) [Compound 2-146],Ear Edema Inhibition (%) ([2]; 1 mg/40 μL/ear × 2): 80%
91,C=CC(=O)N=C1SC(c2ccc(C)cc2)C(C)N1C(=O)NC1CCCCC1 (centres unmarked) [Compound 1-49],–
–,CC1C(c2cccc3ccccc23)OC(=O)N1C(=O)NC1CCCCO1 (centres unmarked) [Compound 2-113],Inhibition (%) ([1]; 1 μM): 72%
–,"CC(=O)OCC(=O)[C@@]1(O)[C@H](C)C[C@H]2[C@@H]3CCC4=CC(=O)C=C[C@]4(C)[C@@]3(F)[C@@H](O)C[C@@]21C [DEX-Ac, Dexamathasone-21-acetate, reference compound]",Ear Edema Inhibition (%) ([2]; 0.3 mg/20 μL/ear × 2): 49%; Ear Edema Inhibition (%) ([2]; 1 mg/20 μL/ear × 2): 80%
–,CC1C(c2ccc(Cl)cc2)SC(=O)N1C(=O)Nc1ccncc1 (centres unmarked) [Compound 2-21],Inhibition (%) ([1]; 1 μM): 100%
63,CC1C(c2ccc3ccccc3c2)OC(=O)N1C(=O)NC1CCCCO1 (centres unmarked) [Compound 2-115],–
94,CC(=O)N=C1SC(c2ccccc2)C(C)N1CC(OC(C)=O)c1ccccc1 (centres unmarked) [Compound 1-42],–
57,CCOC(=O)CN=C1NC(C)C(c2ccc(C)cc2)S1 (centres unmarked) [Compound 1-35],–
82,CC1C(c2ccc(Cc3ccccc3)cc2)OC(=O)N1C(=O)NC1CCCCO1 (centres unmarked) [Compound 2-117],–
63,CC1C(c2ccc(Cl)cc2)SC(=O)N1C(=S)NCCN1CCOCC1 (centres unmarked) [Compound 2-37],–

SMILES,Inhibition (%) ([1]; 0.1 μM),further results
CC1C(c2ccc(Cl)cc2)SC(=NC#N)N1Cc1ccc(Cl)nc1 (centres unmarked) [Compound 1-5],66,–
CC1NC(=N[N+](=O)[O-])SC1c1ccc(Cl)cc1 (centres unmarked) [Compound 1-11],88,–

# From US6762200B2, “Oxa(thia)zolidine derivative and anti-inflammatory drug” (Nippon Soda Co. Ltd., priority 2000, dated 2004)
